Data published in patent US20030176390A1, “Methods of treating insulin resistance syndrome and diabetes” (priority 2001, published 2003).
One block for each compound: values may come before it.

Tests used:
A2 receptor = conditions: relative to NECA; cited from earlier work
A1 and A2 receptors = conditions: selectivity; cited from earlier work
rat adipocytes = test: In vitro lipolysis assay (antilipolytic activity in rat adipocytes); assay type: cell-based; conditions: Rattus norvegicus, Adipocyte, 1 h; norepinephrine-stimulated lipolysis, glycerol assayed, 60 min; read-out: Lipo ec50
Procedure: Determination of Antilipolytic Activity in Rat Adipocytes
Isolation of Adipocytes from Epididymal Fat Pads
Adipose tissue is removed from anesthetized rats and rinsed twice in incubation medium (2.09 g sodium bicarbonate and 0.04 g EDTA, disodium salt, in 1 L Krebs buffer). Each rat (300-350 g) yields approximately 4 mL of adipose tissue. The adipose tissue (35 mL) is cut into small pieces with scissors and washed with incubation medium (50 mL). The mixture is poured into the barrel of a 50 mL syringe to which is attached a short piece of clamped tubing instead of a needle. The aqueous phase is allowed to drain. A second wash with incubation medium is passed through the syringe. The tissue is added to 50 mL of collagenase solution (collagenase (90 mg), bovine serum albumin (BSA) (500 mg), and 0.1 M calcium chloride solution (1 mL), in incubation medium (50 mL)) in a 1 L bottle. The mixture is shaken in an environmental at 37° C. for about 60 minutes under an atmosphere of 95% oxygen/5% carbon dioxide to effect digestion of the tissue. The dispersed cells are poured through 2 layers of cheese cloth into a 100 mL plastic beaker. The undigested clumps in the cloth are rinsed once with incubation medium (20 mL). The cells in the beaker are centrifuged in 2 plastic tubes for 30 seconds at room temperature at 300 rpm. The aqueous phase is aspirated from beneath the loosely packed layer of floating fat cells and discarded. The adipocytes are gently poured into a 250 mL plastic beaker containing 100 mL of rinse solution (1 g BSA per 100 mL incubation medium). After gentle stirring the centrifugation step is repeated. Another wash with rinse solution follows. The cells are pooled and their volume is estimated with a graduated cylinder. The adipocytes are diluted in twice their volume of assay buffer (incubation medium (120 mL), BSA (1.2 g), pyruvic acid (13 mg)).
The assay is performed in 20 mL plastic scintillation vials and the total assay volume is 4.2 mL. Assay buffer (2.5 mL), diluted adipocytes (1.5 mL), and a solution of the compound to be tested (12.3 μL) adenosine agonist (12.3 μl; varying concentration) is incubated in the environmental shaker for 15 minutes, then the reaction is started with norepinephrine solution (41.2 μL) (10 nM, in a carrier solution containing water (100 mL), BSA (4 mg), and 0.1 M EDTA (20 μL))and adenosine deaminase (1 μg/mL, 41.2 μl). After sixty minutes in the shaker the reaction is terminated by putting the vials on ice. […] The hard lipid layer is removed by aspiration and the aqueous layer is assayed for glycerol (400 μl of sample). The positive control is done in the absence of any adenosine agonist, substituting water in place of the solution to be tested.

[1] = Plasma free fatty acids in anaesthetized starved male Wistar rats; assay type: in vivo; parameters: unit not given here
Procedure: Measurement of Plasma Lipdis (Free Fatty Acids, Triglycerides, Cholesterol) in Anaesthetized Rats.
Plasma lipid levels were assayed in anaesthetized rats. Briefly, rats were anaesthetized with an intraperitoneal injection of pentobarbital sodium (60 mg/kg), tracheotomized, and one jugular vein per rat was cannulated for intravenous administration (bolus injection or infusion). Anesthesia was mantained for up to 7 hours by subcutaneous infusion of pentobarbital sodium (adjusted to the anesthetic depth of the individual animal; about 24 mg/kg/h). Body temperature was monitored with a rectal probe thermometer, and temperature was maintained at 37° C. by means of a heated surgical plate. The rats were allowed to stabilize their blood levels after surgery for up to 2 hours, after which the test compound was injected intraperitoneally. Blood samples for glucose analysis (10 μl) were obtained from the tip of the tail every 15 minutes. For analysis of plasma lipids blood samples (0.3 ml) were obtained from the jugular vein either every 10 to 15 minutes for up to 2 hours, or every hour for up to 5 hours after compound administration. Standard enzymatic procedures were used to determine blood glucose (Bergmeyer, 1974).

[2] = Insulin tolerance test (3 U/kg s.c.) in insulin resistant Zucker Fatty rats after 3 weeks pretreatment; assay type: in vivo; parameters: unit not given here
Procedure: Measurement of Insulin Sensitivity in Conscious Rats.
Insulin resistant Zucker Fatty rats or Zucker Diabetic Fatty (ZDF) rats were treated for up to 3 weeks with the test compound orally once daily. Plasma parameters were obtained by retroorbital bleeding during inhalation anaesthesia on respective study days. […] In the case of improvement of insulin sensitivity by the test compound the blood glucose reduction was much more pronounced and prolonged compared to that of the control group.

SMILES: Nc1nc(Nc2ccccc2)nc2c1ncn2[C@@H]1O[C@H](CO)[C@@H](O)[C@H]1O [CV-1808]
fold less potent than NECA in its affinity for the A2 receptor (A2 receptor): 10 fold
A2/A1 ratio (A1 and A2 receptors): 0.19

SMILES: OC[C@H]1O[C@@H](n2cnc3c(NC4CCN(c5ccc(Cl)nn5)C4)ncnc32)[C@H](O)[C@@H]1O (stereo partly drawn) [Example 22, (2R,3R,4S,5R)-5-hydroxymethyl-2-[6-[1-(6-chloropyridazin-3-yl)pyrrolidin-3-ylamino]-purin-9-yl]-tetrahydrofuran-3,4-diol]
EC50 (rat adipocytes): 3.07 nM
melting point: 130 °C (dec.)

SMILES: OC[C@H]1C[C@@H](n2cnc3c(N[C@H]4CCN(c5ccc(C(F)(F)F)cc5)C4)ncnc32)[C@H](O)[C@@H]1O [Example 5, (1R,2S,3R,5R)-3-[6-[1-(4-trifluoromethylphenyl)-pyrrolidin-3(S)-ylamino]-purin-9-yl]-5-hydroxymethylcyclopentane-1,2-diol]
EC50 (rat adipocytes): 2 nM
melting point: 111 to 114 °C

SMILES: OC[C@H]1C[C@@H](n2cnc3c(N[C@H]4CCN(c5cc(C(F)(F)F)ccn5)C4)ncnc32)[C@H](O)[C@@H]1O [Example 34, (1R,2S,3R,5R)-5-hydroxymethyl-3-[6-[1-(4-trifluoromethylpyridin-2-yl)pyrrolidin-3(S)-ylamino]-purin-9-yl]cyclopentane-1,2-diol]
EC50 (rat adipocytes): 3.3 nM
melting point: 135 to 137 °C

SMILES: OC[C@H]1C[C@@H](n2cnc3c(N[C@H]4CCN(c5ccc(Br)cn5)C4)ncnc32)[C@H](O)[C@@H]1O [Example 32, (1R,2S,3R,5R)-3-[6-[1-(5-bromopyridin-2-yl)pyrrolidin-3(S)-ylamino]-purin-9-yl]-5-hydroxymethylcyclopentane-1,2-diol]
EC50 (rat adipocytes): 8 nM
melting point: 169 to 171 °C

SMILES: OC[C@H]1O[C@@H](n2cnc3c(NC4CCCC4)ncnc32)[C@H](O)[C@@H]1O [CPA, Cyclopentyladenosine]
A2/A1 ratio (A1 and A2 receptors): 780

SMILES: COC[C@H]1C[C@@H](n2cnc3c(N[C@H]4CCN(c5cccc(Cl)c5)C4)ncnc32)[C@H](O)[C@@H]1O [Example 56, (1R,2S,3R,5R)-3-[6-[1-(3-chlorophenyl)-pyrrolidin-3(S)-ylamino]-purin-9-yl]-5-methoxymethylcyclopentane-1,2-diol]
EC50 (rat adipocytes): 2.4 nM
melting point: 127 to 130 °C

More lines, main results first:

EC50 (rat adipocytes): 226 nM
melting point: 140 to 143 °C
SMILES: COC[C@H]1C[C@@H](n2cnc3c(N[C@H]4CCN(c5ncc(C(F)(F)F)cc5Cl)C4)ncnc32)[C@H](O)[C@@H]1O [Example 44, (1R,2S,3R,5R)-3-[6-[1-(3-chloro-5-trifluoromethylpyridin-2-yl)pyrrolidin-3(S)-ylamino]-purin-9-yl]-5-methoxymethylcyclopentane-1,2-diol]

EC50 (rat adipocytes): 5.62 nM
melting point: 166 to 168 °C
SMILES: COC[C@H]1C[C@@H](n2cnc3c(N[C@H]4CCN(c5ccc(C(F)(F)F)cn5)C4)ncnc32)[C@H](O)[C@@H]1O [Example 3, (1R,2S,3R,5R)-5-methoxymethyl-3-[6-[1-(5-trifluoromethylpyridin2-yl)pyrrolidin-3(S)-ylamino]-purin-9-yl]cyclopentane-1,2-diol]
plasma free fatty acids, mean ([1]; 10 mg/kg i.p., 10 minutes): 0.42
plasma free fatty acids, mean ([1]; 10 mg/kg i.p., 20 minutes): 0.26
plasma free fatty acids, mean ([1]; 10 mg/kg i.p., 30 minutes): 0.19
plasma free fatty acids, mean ([1]; 10 mg/kg i.p., 40 minutes): 0.19
plasma free fatty acids, mean ([1]; 10 mg/kg i.p., 60 minutes): 0.13
plasma free fatty acids, mean ([1]; 10 mg/kg i.p., −60 minutes): 0.61
plasma free fatty acids, mean ([1]; 30 mg/kg i.p., 10 minutes): 0.24
plasma free fatty acids, mean ([1]; 30 mg/kg i.p., 20 minutes): 0.14
plasma free fatty acids, mean ([1]; 30 mg/kg i.p., 30 minutes): 0.13
plasma free fatty acids, mean ([1]; 30 mg/kg i.p., 40 minutes): 0.10
plasma free fatty acids, mean ([1]; 30 mg/kg i.p., 60 minutes): 0.09
plasma free fatty acids, mean ([1]; 30 mg/kg i.p., −60 minutes): 0.52
Insulin tolerance test, blood glucose, mean ([2]; 1 mg/kg p.o. for 3 weeks (first group), 0 minutes after insulin): 4.60
Insulin tolerance test, blood glucose, mean ([2]; 1 mg/kg p.o. for 3 weeks (first group), 60 minutes after insulin): 1.96
Insulin tolerance test, blood glucose, mean ([2]; 1 mg/kg p.o. for 3 weeks (first group), 120 minutes after insulin): 1.59
Insulin tolerance test, blood glucose, mean ([2]; 1 mg/kg p.o. for 3 weeks (first group), 180 minutes after insulin): 1.72
Insulin tolerance test, blood glucose, mean ([2]; 1 mg/kg p.o. for 3 weeks (first group), 240 minutes after insulin): 3.02
Insulin tolerance test, blood glucose, mean ([2]; 1 mg/kg p.o. for 3 weeks (first group), 300 minutes after insulin): 5.13
Insulin tolerance test, blood glucose, mean ([2]; 1 mg/kg p.o. for 3 weeks (first group), 360 minutes after insulin): 4.98
Insulin tolerance test, blood glucose, mean ([2]; 1 mg/kg p.o. for 3 weeks (first group), 420 minutes after insulin): 4.04
Insulin tolerance test, blood glucose, mean ([2]; second group, (1 mg/kg p.o.), 3 weeks, 0 minutes after insulin): 5.17
Insulin tolerance test, blood glucose, mean ([2]; second group, (1 mg/kg p.o.), 3 weeks, 60 minutes after insulin): 1.99
Insulin tolerance test, blood glucose, mean ([2]; second group, (1 mg/kg p.o.), 3 weeks, 120 minutes after insulin): 1.57
Insulin tolerance test, blood glucose, mean ([2]; second group, (1 mg/kg p.o.), 3 weeks, 180 minutes after insulin): 1.44
Insulin tolerance test, blood glucose, mean ([2]; second group, (1 mg/kg p.o.), 3 weeks, 240 minutes after insulin): 2.54
Insulin tolerance test, blood glucose, mean ([2]; second group, (1 mg/kg p.o.), 3 weeks, 300 minutes after insulin): 4.35
Insulin tolerance test, blood glucose, mean ([2]; second group, (1 mg/kg p.o.), 3 weeks, 360 minutes after insulin): 5.63
Insulin tolerance test, blood glucose, mean ([2]; second group, (1 mg/kg p.o.), 3 weeks, 420 minutes after insulin): 6.09

EC50 (rat adipocytes): 17.6 nM
melting point: 97 to 99 °C
SMILES: OC[C@H]1C[C@@H](n2cnc3c(N[C@H]4CCN(c5ccccc5)C4)ncnc32)[C@H](O)[C@@H]1O [Example 39, (1R,2S,3R,5R)-5-hydroxymethyl-3-[6-[1-(phenyl)-pyrrolidin-3(S)-ylamino]-purin-9-yl]cyclopentane-1,2-diol]

EC50 (rat adipocytes): 18 nM
melting point: 215 °C (dec.)
SMILES: CC[C@H](C)NC(=O)[C@H]1C[C@@H](n2cnc3c(N[C@H]4CCN(c5ccc(C(F)(F)F)cn5)C4)ncnc32)[C@H](O)[C@@H]1O [Example 61, (1S,2R,3S,4R)-2,3-dihydroxy-4-{6-[1-(5-trifluoromethyl-pyridin-2-yl)-pyrrolidin-3(S)-ylamino]-purin-9-yl}-cyclopentanecarboxylic acid-1(S)-methylpropylamide]
